The experiment concerns spontaneously contracting 3D cultured CMs. As to the kind of experiment: Calcium transient and spontaneous beating rate of dissociated, un-paced CMs in response to isoproterenol. Type of experiment: cell-based, human. The procedure:
To immobilize cells for proper calcium transient acquisition, glass coverslips (21 mm, No. 1, Fisher Scientific) were coated with PDMS using a WS-400-6NPP spin coater (Laurell Technologies Corporation). Briefly, SLYGARD 184 silicone elastomer curing agent was mixed with SLYGARD 184 elastomer base (Dow Corning Corporation) at a ratio of 1:10, applied on the glass coverslips and evenly spin coated to obtain PDMS coated coverslips. These were dried at 60° C. for several hours, sterilized using 70% ethanol, and further dried under sterile conditions for at least 24 h. In order for successful single CM attachment, 1× fibronectin in ice cold ultrapure water was applied on PDMS coated coverslips and incubated for at least one hour at room temperature.
Day 14 2D monolayers and 3D tissues were dissociated using 0.25% trypsin (EDTA) at 37° C. for 5 and 8 min, respectively. Cells were singularized by pipetting, added to RPMI20 media49, and centrifuged for 5 min at 200 g. Singularized cells were resuspended in RPMI20+5 μM ROCK inhibitor and transferred onto fibronectin coated PDMS glass coverslips. Cells were incubated for 48 h to ensure uniform cell attachment. Media was then switched to RPMI/B27 and cells maintained for 3 to 5 days. CM calcium transient recordings were obtained using an IonOptix Myocyte Calcium and Contractility Recording System. Samples were incubated in 5 μM Fura-2AM dye (Molecular Probes) in 37° C. warm Tyrode's solution (1.8 mM CaCl2, 5 mM glucose, 5 mM HEPES, 1 mM MgCl2, 5.4 mM KCl, 135 mM NaCl, and 0.33 mM NaH2PO4, pH 7.4) for 30 mM CMs were paced at frequencies from 0.5 to 2.0 Hz (0.5 Hz increments) and stimulated at 30 V. Calcium transient duration at 50% and 80% time to baseline was recorded. In addition to responses to outside electrical stimuli, response to 0.5 μM isoproterenol was studied on un-paced CMs.

Setting [1] is: 0.5 μM isoproterenol, spontaneously contracting 3D cultured CMs, vs pre-isoproterenol, n=3, P<0.05.

As to `CC(C)NCC(O)c1ccc(O)c(O)c1` (stereo not shown) [isoproterenol], under setting [1], the “calcium transient time to baseline 50%” value is “significantly shortened” and the “calcium transient time to baseline 80%” value is “significantly shortened”. Under “0.5 μM isoproterenol, un-paced day 14 3D cultured CMs, pre-isoproterenol 33 beats per min”, the “spontaneous beating rate (post isoproterenol)” value came out at 60 beats per min. Besides, the “spontaneous beating rate (change in words)” value (spontaneously contracting 3D cultured CMs, response to isoproterenol) was “increased”.

Values taken from US12448605B2, “Encapsulation and cardiac differentiation of hiPSCs in 3D PEG-fibrinogen hydrogels” (Auburn University, priority 2013, dated 2025).
